Source: paper PMC3928398, “RPEL Proteins Are the Molecular Targets for CCG-1423, an Inhibitor of Rho Signaling” (PLoS ONE, 2014)

How the values were obtained:
Assay in all cases: pull-down with CCG-1423 Sepharose, immunoblot
Format in all cases: binding
[1] = biological target: T1, MRTF-B (MAL16/MKL2), Flag-MRTF-B (Mus musculus, UniProt P59759); details: immobilised CCG-1423 (photo-crosslinked to Sepharose); pH 7.5, 4°C, 2 h
T1 construct: gene Mrtfb; N-terminal Flag tag, pCS2+; in vitro translated in wheat germ extract, anti-Flag purified
T1 sequence (P59759 1-1080): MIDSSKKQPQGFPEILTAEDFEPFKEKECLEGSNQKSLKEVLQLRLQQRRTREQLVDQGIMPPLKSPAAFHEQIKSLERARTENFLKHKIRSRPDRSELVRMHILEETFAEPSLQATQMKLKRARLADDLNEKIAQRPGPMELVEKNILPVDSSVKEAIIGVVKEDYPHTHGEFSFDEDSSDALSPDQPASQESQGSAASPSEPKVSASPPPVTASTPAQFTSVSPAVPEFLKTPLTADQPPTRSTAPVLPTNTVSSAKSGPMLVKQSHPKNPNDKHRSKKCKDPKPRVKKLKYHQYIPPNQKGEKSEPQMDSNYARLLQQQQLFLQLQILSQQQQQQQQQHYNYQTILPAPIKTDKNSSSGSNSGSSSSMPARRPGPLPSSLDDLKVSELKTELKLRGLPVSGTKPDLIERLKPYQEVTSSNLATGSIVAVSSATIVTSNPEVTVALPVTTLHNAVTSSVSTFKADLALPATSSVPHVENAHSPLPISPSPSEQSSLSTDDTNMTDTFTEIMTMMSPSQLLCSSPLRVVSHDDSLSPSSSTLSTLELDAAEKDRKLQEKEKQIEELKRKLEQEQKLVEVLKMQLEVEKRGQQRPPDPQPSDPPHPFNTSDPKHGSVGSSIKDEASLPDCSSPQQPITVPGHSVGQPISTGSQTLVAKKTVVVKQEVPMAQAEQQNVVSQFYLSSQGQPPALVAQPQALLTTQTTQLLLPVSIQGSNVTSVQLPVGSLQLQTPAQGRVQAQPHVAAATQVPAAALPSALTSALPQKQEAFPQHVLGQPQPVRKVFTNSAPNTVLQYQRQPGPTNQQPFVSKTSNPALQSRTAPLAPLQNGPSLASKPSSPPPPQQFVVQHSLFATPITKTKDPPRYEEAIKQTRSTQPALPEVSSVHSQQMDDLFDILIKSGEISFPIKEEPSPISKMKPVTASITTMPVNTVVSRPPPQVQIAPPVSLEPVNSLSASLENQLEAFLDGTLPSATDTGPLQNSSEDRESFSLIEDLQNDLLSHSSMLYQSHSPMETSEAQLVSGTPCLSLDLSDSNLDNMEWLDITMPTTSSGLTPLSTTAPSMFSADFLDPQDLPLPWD

[2] = biological target: T2, Mycd (myocardin), Flag-Mycd (Mus musculus, UniProt Q8VIM5); details: immobilised CCG-1423 (photo-crosslinked to Sepharose); pH 7.5, 4°C, 2 h
T2 construct: gene Myocd; N-terminal Flag tag, pCS2+; in vitro translated in wheat germ extract, anti-Flag purified
T2 sequence (Q8VIM5 1-935): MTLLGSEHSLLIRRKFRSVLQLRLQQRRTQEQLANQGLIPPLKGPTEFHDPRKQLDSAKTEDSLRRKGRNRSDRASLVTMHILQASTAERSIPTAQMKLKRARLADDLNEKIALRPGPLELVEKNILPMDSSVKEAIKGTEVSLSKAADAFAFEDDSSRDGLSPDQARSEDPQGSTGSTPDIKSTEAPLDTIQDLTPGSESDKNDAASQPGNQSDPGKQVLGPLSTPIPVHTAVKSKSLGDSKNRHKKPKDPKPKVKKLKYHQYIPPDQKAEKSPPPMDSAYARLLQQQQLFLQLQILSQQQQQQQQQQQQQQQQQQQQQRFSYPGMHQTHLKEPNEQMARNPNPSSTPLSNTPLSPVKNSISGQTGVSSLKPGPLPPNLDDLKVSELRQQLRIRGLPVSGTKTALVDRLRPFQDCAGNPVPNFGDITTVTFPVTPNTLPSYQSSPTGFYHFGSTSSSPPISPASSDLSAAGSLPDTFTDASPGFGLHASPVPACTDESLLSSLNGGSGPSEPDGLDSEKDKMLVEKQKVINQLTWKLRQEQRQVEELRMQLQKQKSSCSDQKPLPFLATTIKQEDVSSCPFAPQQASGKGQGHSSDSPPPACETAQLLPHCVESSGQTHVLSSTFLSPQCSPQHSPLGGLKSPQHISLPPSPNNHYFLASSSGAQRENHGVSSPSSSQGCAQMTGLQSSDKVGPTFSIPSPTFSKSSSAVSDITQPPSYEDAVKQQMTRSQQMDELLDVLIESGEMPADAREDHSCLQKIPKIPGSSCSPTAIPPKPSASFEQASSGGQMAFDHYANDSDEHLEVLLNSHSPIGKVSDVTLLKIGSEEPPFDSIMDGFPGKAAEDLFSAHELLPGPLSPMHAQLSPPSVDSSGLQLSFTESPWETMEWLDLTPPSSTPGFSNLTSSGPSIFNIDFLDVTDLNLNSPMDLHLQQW

[3] = biological target: T3, MRTF-A (MAL/MKL1), Flag-MRTF-A (Mus musculus, UniProt Q8K4J6); details: immobilised CCG-1423 (photo-crosslinked to Sepharose); pH 7.5, 4°C, 2 h
T3 construct: gene Mrtfa; N-terminal Flag tag, pCS2+; in vitro translated in wheat germ extract, anti-Flag purified
T3 sequence (Q8K4J6 1-964): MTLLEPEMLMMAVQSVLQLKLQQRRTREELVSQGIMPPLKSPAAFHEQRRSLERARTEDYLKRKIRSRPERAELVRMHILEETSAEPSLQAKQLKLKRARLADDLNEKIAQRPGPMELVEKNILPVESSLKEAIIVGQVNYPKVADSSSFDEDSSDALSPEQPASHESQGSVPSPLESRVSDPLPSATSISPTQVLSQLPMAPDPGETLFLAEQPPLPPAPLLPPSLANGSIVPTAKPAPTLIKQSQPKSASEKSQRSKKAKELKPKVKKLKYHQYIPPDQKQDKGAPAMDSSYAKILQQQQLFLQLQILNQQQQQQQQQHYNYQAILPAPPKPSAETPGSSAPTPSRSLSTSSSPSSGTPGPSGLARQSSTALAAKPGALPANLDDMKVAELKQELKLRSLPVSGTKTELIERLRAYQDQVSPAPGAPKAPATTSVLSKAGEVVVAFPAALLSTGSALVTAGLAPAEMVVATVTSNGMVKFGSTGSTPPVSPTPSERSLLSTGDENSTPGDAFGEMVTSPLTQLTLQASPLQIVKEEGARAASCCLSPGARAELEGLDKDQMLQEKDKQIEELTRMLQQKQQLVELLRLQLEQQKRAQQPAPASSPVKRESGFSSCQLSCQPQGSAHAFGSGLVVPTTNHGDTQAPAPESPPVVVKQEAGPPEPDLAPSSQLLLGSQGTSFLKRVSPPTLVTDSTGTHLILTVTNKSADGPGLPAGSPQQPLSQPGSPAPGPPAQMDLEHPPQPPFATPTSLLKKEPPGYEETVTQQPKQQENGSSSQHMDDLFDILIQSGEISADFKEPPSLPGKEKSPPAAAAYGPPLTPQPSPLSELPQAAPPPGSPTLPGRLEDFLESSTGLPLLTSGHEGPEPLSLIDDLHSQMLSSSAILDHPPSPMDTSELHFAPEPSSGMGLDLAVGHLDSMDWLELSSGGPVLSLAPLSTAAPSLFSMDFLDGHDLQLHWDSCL

[4] = biological target: T1, MRTF-B (MAL16/MKL2), Flag-MRTF-B; details: immobilised CCG-1423 (photo-crosslinked to Sepharose); pH 7.5, 4°C, 2 h; remark: listed apart in the source
Phactr1, Flag-Phactr1 = biological target: T4, Phactr1, Flag-Phactr1 (Rattus norvegicus, UniProt P62024); details: immobilised CCG-1423 (photo-crosslinked to Sepharose); pH 7.5, 4°C, 2 h
T4 construct: N-terminal Flag tag, pCS2+; in vitro translated in wheat germ extract, anti-Flag purified
T4 sequence (P62024 1-580): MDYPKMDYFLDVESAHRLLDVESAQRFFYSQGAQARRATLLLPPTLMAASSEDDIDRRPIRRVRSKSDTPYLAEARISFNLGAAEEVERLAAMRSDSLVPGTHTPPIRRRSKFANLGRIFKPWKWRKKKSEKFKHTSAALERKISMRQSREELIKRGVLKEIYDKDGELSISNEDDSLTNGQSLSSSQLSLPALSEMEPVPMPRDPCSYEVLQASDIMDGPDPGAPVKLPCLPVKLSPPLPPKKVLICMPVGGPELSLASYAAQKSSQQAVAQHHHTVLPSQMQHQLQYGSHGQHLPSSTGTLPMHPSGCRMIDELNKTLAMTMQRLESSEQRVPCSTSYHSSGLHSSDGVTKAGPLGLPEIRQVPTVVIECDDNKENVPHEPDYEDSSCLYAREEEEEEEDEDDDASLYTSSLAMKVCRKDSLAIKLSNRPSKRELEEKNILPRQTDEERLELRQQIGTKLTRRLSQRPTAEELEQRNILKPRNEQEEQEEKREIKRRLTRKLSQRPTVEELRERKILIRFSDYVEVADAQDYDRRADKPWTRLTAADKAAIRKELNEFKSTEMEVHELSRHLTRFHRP

[5] = biological target: T3, MRTF-A (MAL/MKL1), Flag-MRTF-A; details: immobilised CCG-1423 (photo-crosslinked to Sepharose) competed by 10 µM free CCG-1423; no G-actin; pH 7.5, 4°C, 2 h; site: N-terminal basic domain (NB)

SMILES: CC(ONC(=O)c1cc(C(F)(F)F)cc(C(F)(F)F)c1)C(=O)Nc1ccc(Cl)cc1 (stereo not drawn) [CCG-1423]
- pull-down with CCG-1423 Sepharose, immunoblot [1]: MRTF-B NBmut) to CCG-1423 Sepharose severely reduced
- pull-down with CCG-1423 Sepharose, immunoblot [2]: MRTF-B, Mycd, and Phactr1 bound to CCG-1423 Sepharose
- % of wild-type binding [3]: 11.2±8.5%
- pull-down with CCG-1423 Sepharose, immunoblot [4]: MRTF-B, Mycd, and Phactr1 bound to CCG-1423 Sepharose
- pull-down with CCG-1423 Sepharose, immunoblot (Phactr1, Flag-Phactr1): MRTF-B, Mycd, and Phactr1 bound to CCG-1423 Sepharose
- % of binding left with 10 μM free CCG-1423 [5]: 20.6±6.3%
